Molecules are shown by their SMILES.

A short description of the data set: gradient 5% acetonitrile 3 min, to 50% in 2 min, to 85% in 15 min, held 3 min, 100 µL/min. Particulars: column: Zorbax Extend-C18 2.1 x 50 mm; eluents: water / acetonitrile, 0.1% formic acid. In a few lines: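 Over 3 months, pure standards in mixtures of ~100 molecules were run by HPLC coupled to a quadrupole time-of-flight mass spectrometer in positive and negative ionization mode. The column was a Zorbax Extend-C18 (2.1 × 50 mm, 1.8 μm) at 100 μL/min, eluted with water and acetonitrile each holding 0.1% formic acid, with 40 μL dead and 900 μL dwell volumes. Retention time was determined from adduct peaks chosen by software and checked manually.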
As for `Cc1ccc2c(C(=O)NCCc3cccs3)cc(NC(=O)C3CCC3)cc2n1`, the RP-LC retention time came out at 660 s.
In the case of `CCOc1ccc(-c2cn3ccn(-c4ccc(C)cc4C)c(=O)c3n2)cc1` it was 921 s; in that of `COc1cccc(-c2nc(C3CC(=O)N(c4ccc(Cl)cc4)C3)no2)c1` (stereo not given), 1050 s.
In turn, `COC(=O)c1ccccc1OCc1cc(=O)oc2ccc(C)cc12` showed an RP-LC retention time of 983 s.
Molecule `N#Cc1ccc(NC2c3ccccc3CC2O)cc1` (stereo not given) gave an RP-LC retention time of 822 s.
Molecule `CCC(=O)n1nc(-c2ccccc2Cl)nc1N` returned an RP-LC retention time of 837 s.
For the molecule `Cc1cc(=O)n(CC(=O)NCCn2nc(-c3ccc(F)cc3)ccc2=O)cn1`, the RP-LC retention time came out at 603 s.
Take `CC(C)c1cc(=O)n(CC(=O)Nc2nc3c(s2)CCCC3)cn1`: the RP-LC retention time turned out to be 692 s.
As for `CN(CCc1ccncc1)C(=O)C1CCN(c2cnn(Cc3ccccc3)c(=O)c2)CC1`, the RP-LC retention time turned out to be 612 s.
In the case of `CCCN(CCc1ccccc1)C1CCc2c(O)cccc2C1` (stereo not given) it was 768 s.
`Cc1ccc(CNC(=O)CCc2c(C)nn(-c3cc(N4CCCC4)ncn3)c2C)o1` yielded an RP-LC retention time of 745 s.
For the molecule `CC(C)(C)NC(=O)CCc1c(-c2ccccc2)nc2ccccn12`, the RP-LC retention time is 632 s.
With `O=C(Cc1csc(NS(=O)(=O)c2ccc(Cl)cc2)n1)NCc1cccs1`, the RP-LC retention time came out at 725 s.
Turning to `CCN(Cc1ccccc1)C(=O)CS(=O)Cc1cnn(-c2ccccc2)c1-n1cccc1` (stereo not given), the RP-LC retention time is 825 s.
Turning to `Cc1ccc(C)c(CNC(=O)c2cc(-c3ccncc3)cn2C)c1`, the RP-LC retention time is 679 s.
The molecule `Cc1nc(-c2cn(C)c3ncccc23)sc1C(=O)NCc1ccc(F)cc1Cl` yielded an RP-LC retention time of 990 s.
The molecule `O=C(c1ccoc1)N1CCCC1c1nc(-c2cccc(C(F)(F)F)c2)no1` (stereo not given) had an RP-LC retention time of 996 s.
To `CC(CCc1ccccc1)NC(=O)Cn1nc2n(c1=O)CCCC2` (stereo not given) belongs 716 s.
As for `CCN1C(=O)c2c(C(=O)Nc3ccc(C)cc3)ncn2CC1(C)C(=O)NC1CCCC1` (stereo not given), the RP-LC retention time amounted to 822 s.
Regarding `Cc1ccccc1CNC(=O)C1CCCN(S(=O)(=O)c2c[nH]c(C(=O)N3CCCCCC3)c2)C1` (stereo not given), the RP-LC retention time amounted to 871 s.
For `Cc1cc(-c2c(C)sc(C)c2S(=O)(=O)NCc2ccc(Cl)cc2)n[nH]1`, the RP-LC retention time stood at 1090 s.
With `CC1(C)CC(=O)C2=C(C1)N=C1SCCC(=O)N1C2c1ccc(Cl)cc1` (stereo not given), the RP-LC retention time is 877 s.
In the case of `O=C(c1ccoc1)N1CCN(c2cc(-c3ccccc3)[nH]n2)CC1`, the RP-LC retention time came out at 698 s.
As for `CN(CCc1noc(-c2ccc(C(=O)N3CCCCC3)cc2)n1)C(=O)c1ccc2c(c1)OCO2`, the RP-LC retention time stood at 779 s.
Molecule `Cc1ccc(CNC(=O)c2csc(-c3cn(C)c4ncccc34)n2)cc1C` returned an RP-LC retention time of 840 s.
To `Cc1ccc(NC(=O)CSc2nc(N3CCCCC3)nc3ccccc23)c(Cl)c1` belongs 901 s.
In the case of `Fc1ccc(OCc2nnc3sc(-c4cccc(F)c4)nn23)cc1` it was 947 s.
In the case of `CSc1cccc(NC(=O)N2CCC(C)(C(=O)NCc3ccc4c(c3)OCO4)CC2)c1` it was 837 s; in that of `O=C(NCc1cccc(C(F)(F)F)c1)c1cn2nc(Cl)ccc2n1`, 908 s.
Molecule `Cn1cnc2cc(-c3noc(CNC(=O)c4ccco4)n3)ccc21` yielded an RP-LC retention time of 585 s.
`CCOc1ccc(S(=O)(=O)Nc2ccc3c(c2)CCC(=O)N3CC(C)C)cc1` gave an RP-LC retention time of 901 s.
`CCOc1ccc(N2C(=O)C3N=NN(Cc4nc(-c5ccccc5C)no4)C3C2=O)cc1` (stereo not given): the RP-LC retention time was 1040 s.
To `O=c1c2cnn(-c3ccc(F)cc3)c2ncn1Cc1nc(-c2ccccc2)no1` belongs 1010 s; to `O=c1c(=O)n(Cc2nc(-c3cccc(F)c3)no2)ccn1Cc1ccc(Cl)cc1`, 930 s; to `O=C(CN1CCN(Cc2ccc(F)cc2)C1=O)NCCCn1cccn1`, 672 s.
In the case of `CCCCn1cc(S(=O)(=O)Nc2cccc(Cl)c2)c2cccnc21` it was 1020 s; in that of `COc1ccc(C2Cn3nnc(-c4nc(-c5cccc(C(F)(F)F)c5)no4)c3CO2)cc1` (stereo not given), 1270 s.
To `COc1ccc2nc(N3CC(C(=O)N4CCc5cc(OC)c(OC)cc5C4)C3)sc2c1` belongs 661 s; to `COc1ccc(NC(=O)Cc2csc3nc(-c4cccc(Br)c4)cn23)cc1`, 937 s; to `COc1cncc(C(=O)Nc2cc(F)ccc2F)c1`, 735 s.
As to `O=C(C1CC1)N1CCc2sc(S(=O)(=O)NCc3ccccc3)cc2C1`, the RP-LC retention time came to 795 s.
`COc1cc(C2CC(=O)c3c([nH]c(C(=O)OCC4CCCCC4)c3C)C2)cc(OC)c1OC` (stereo not given) displayed an RP-LC retention time of 1180 s.
`O=C(Cc1ccsc1)N1CCC[C@H]1c1nc(-c2ccccc2)n[nH]1` registered an RP-LC retention time of 718 s.
To `O=C(NCCc1ccccc1)N1CCC(OC2CCN(Cc3ccccc3)CC2)CC1` belongs 652 s; to `COc1ccc(N2CCN(C(=O)CN3C(=O)NC4(CCCCC4)C3=O)CC2)cc1`, 694 s; to `CC(C)NC(=O)c1ccc2cnn(C)c2c1`, 667 s.
To `CCC1(C(=O)NCc2ccc(C(C)C)cc2)CCCCC(=O)N1` (stereo not given) belongs 814 s; to `CCc1cccc(NC(=O)Cn2ccc3sccc3c2=O)c1`, 800 s.
In the case of `COCCn1cc(C(=O)NC2CCCCCC2)c2nn(-c3ccccc3)c(=O)c-2c1` it was 1010 s.
`Cc1cccc(CNC(=O)C2CCCN(c3cc(=O)n(C)c(=O)n3C)C2)c1` (stereo not given) had an RP-LC retention time of 701 s.
`CCOc1cccc(-c2noc(-c3nnn4c3COC(c3ccc(OC)cc3)C4)n2)c1` (stereo not given) returned an RP-LC retention time of 1210 s.
`NS(=O)(=O)c1ccc(NC(=O)c2cnc3ccccn3c2=O)cc1`: the RP-LC retention time came out at 610 s.
On to `COc1ccccc1N1CCN(c2ncc(C(=O)Nc3ccccc3)c(N)n2)CC1`, for which the RP-LC retention time amounted to 742 s.
In turn, `Cc1cccc(NC(=O)N2CCc3nc(-c4ccccc4)ncc3C2)c1C` registered an RP-LC retention time of 901 s.
As for `COc1ccccc1CNC(=O)C1CCN(C(=O)c2nn(C)c3c2CN(C(=O)C(C)C)CC3)CC1`, the RP-LC retention time was 681 s.
Molecule `COc1ccc(-c2noc(C3CCCN3C(=O)Nc3ccc(C)c(C)c3)n2)cc1` (stereo not given) registered an RP-LC retention time of 925 s.
In the case of `CC1(C)CCSC(/C=C/c2ccccc2)=N1`, the RP-LC retention time stood at 690 s.
In the case of `CCCCNC(=O)C1CCN(C(=O)Nc2ccc(NC(=O)Nc3ccccc3)cc2)CC1` it was 729 s; in that of `O=C(CC(c1cccs1)N1Cc2ccccc2C1=O)N1CCN(c2ccccn2)CC1` (stereo not given), 632 s.
To `CCOC(=O)c1c(C)[nH]c(C)c1S(=O)(=O)N1CCC(C(=O)NCCN2CCCCCC2)CC1` belongs 592 s.
